Test results reported in patent publication US20230085307A1, “PYRIDAZINONE COMPOUND AND HERBICIDE” (NISSAN CHEMICAL CORPORATION, priority 2019, published 2023).

Columns and labels:
barnyard grass = assay: Test Example 5: herbicidal effect by foliage application, plastic box (Table 20, symbol H); assay type: in vivo, barnyard grass (Echinochloa crus-galli); conditions: foliage application, AAH 320 g/ha, evaluated three weeks after application
How it was run: (§1)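 Post-emergence foliar test in sterilized diluvial soil. Compound applied as water-diluted emulsion at a predetermined rate to 14-day-old plants; evaluation at three weeks.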

chickweed = assay: Test Example 4: herbicidal effect by soil treatment (Table 19, symbol P); assay type: in vivo, common chickweed (Stellaria media); conditions: amount of applied herbicide 320 g/ha
How it was run: (§2)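 Scoring uses the grading scale of an earlier test, three weeks post-application. Treatment consists of spraying a diluted emulsion formulation across the surface of sterilized diluvial soil in which seeds are buried near 1.5 cm deep; boxes are kept in a greenhouse between 25° C. and 30° C.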

oval-leafed pondweed = assay: Test Example 2: herbicidal activity, application during weed generation under submerged conditions (Table 17, symbol C); assay type: in vivo, oval-leafed pondweed (Monochoria vaginalis); conditions: AAH 320 g/ha; application during weed generation, submerged conditions
How it was run: (§3)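 Effect on each weed is rated three weeks post-treatment, using the same scoring criteria as the preceding test. Plants grow from mixed-sown seed in flooded alluvial soil (4 cm water) at 25° C. to 30° C., and are treated at one to two leaves with diluted emulsion dropped onto the water.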

Italian ryegrass [1] = assay: Test Example 4: herbicidal effect by soil treatment (Table 19, symbol K); assay type: in vivo, Italian ryegrass (Lolium multiflorum); conditions: amount of applied herbicide 320 g/ha
How it was run: as §2

late watergrass = assay: Test Example 1: herbicidal activity, application before weed generation under submerged conditions (Table 16, symbol A); assay type: in vivo, late watergrass (Echinochloa oryzicola); conditions: 320 g/ha applied herbicide
How it was run: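 Alluvial soil was flooded to 4 cm depth, weed seeds were sown mixed and 2.5-leaf rice seedlings were transplanted. On sowing day, the compound's emulsion, diluted in water to a set dose, was applied to the water surface. Plants grew at 25–30 °C and were scored 0–5 after three weeks.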

southern crabgrass [2] = assay: Test Example 4: herbicidal effect by soil treatment (Table 19, symbol F); assay type: in vivo, southern crabgrass (Digitaria ciliaris); conditions: amount of applied herbicide 320 g/ha
How it was run: as §2

Japanese bulrush = assay: Test Example 2: herbicidal activity, application during weed generation under submerged conditions (Table 17, symbol B); assay type: in vivo, Japanese bulrush (Schoenoplectus juncoides); conditions: AAH 320 g/ha; application during weed generation, submerged conditions
How it was run: as §3

persian speedwell [3] = assay: Test Example 4: herbicidal effect by soil treatment (Table 19, symbol R); assay type: in vivo, Persian speedwell (Veronica persica); conditions: amount of applied herbicide 320 g/ha
How it was run: as §2

persian speedwell [4] = assay: Test Example 5: herbicidal effect by foliage application, plastic box (Table 20, symbol R); assay type: in vivo, Persian speedwell (Veronica persica); conditions: foliage application, AAH 320 g/ha, evaluated three weeks after application
How it was run: as §1

southern crabgrass [5] = assay: Test Example 5: herbicidal effect by foliage application, plastic box (Table 20, symbol F); assay type: in vivo, southern crabgrass (Digitaria ciliaris); conditions: foliage application, AAH 320 g/ha, evaluated three weeks after application
How it was run: as §1

green foxtail = assay: Test Example 4: herbicidal effect by soil treatment (Table 19, symbol G); assay type: in vivo, green foxtail (Setaria viridis); conditions: amount of applied herbicide 320 g/ha
How it was run: as §2

blackgrass = assay: Test Example 4: herbicidal effect by soil treatment (Table 19, symbol J); assay type: in vivo, blackgrass (Alopecurus myosuroides); conditions: amount of applied herbicide 320 g/ha
How it was run: as §2

Italian ryegrass [6] = assay: Test Example 5: herbicidal effect by foliage application, plastic box (Table 20, symbol K); assay type: in vivo, Italian ryegrass (Lolium multiflorum); conditions: foliage application, AAH 320 g/ha, evaluated three weeks after application
How it was run: as §1

lambsquarters = assay: Test Example 5: herbicidal effect by foliage application, plastic box (Table 20, symbol O); assay type: in vivo, lambsquarters (Chenopodium album); conditions: foliage application, AAH 320 g/ha, evaluated three weeks after application
How it was run: as §1

redroot pigweed [7] = assay: Test Example 5: herbicidal effect by foliage application, plastic box (Table 20, symbol N); assay type: in vivo, redroot pigweed (Amaranthus retroflexus); conditions: foliage application, AAH 320 g/ha, evaluated three weeks after application
How it was run: as §1

redroot pigweed [8] = assay: Test Example 4: herbicidal effect by soil treatment (Table 19, symbol N); assay type: in vivo, redroot pigweed (Amaranthus retroflexus); conditions: amount of applied herbicide 320 g/ha
How it was run: as §2

In the case of CC(=O)c1ccc(-c2sc3ccc(F)cc3c2-c2c(O)c(C)nn(C)c2=O)cc1 [2-339], the “H: barnyard grass, herbicidal effect (criteria 0-5)” value (barnyard grass) is reported as 3 (Herbicidal rate of 40% or more and less than 70%), the “herbicidal effect on P: chickweed” value (chickweed) is reported as 3 (Herbicidal rate of 40% or more and less than 70%) and the “herbicidal effect rating, C: oval-leafed pondweed” value (oval-leafed pondweed) is reported as 3 (Herbicidal rate of 40% or more and less than 70%). The “herbicidal effect on K: Italian ryegrass” value (Italian ryegrass [1]) was 4 (Herbicidal rate of 70% or more and less than 90%), the “Herbicidal effect on A: late watergrass (grade 0-5)” value (late watergrass) was 4 (Herbicidal rate of 70% or more and less than 90%) and the “herbicidal effect on F: southern crabgrass” value (southern crabgrass [2]) was 0 (Herbicidal rate of 5% or less (almost no effect)). For the same molecule, the “herbicidal effect rating, B: Japanese bulrush” value (Japanese bulrush) was 3 (Herbicidal rate of 40% or more and less than 70%), the “herbicidal effect on R: persian speedwell” value (persian speedwell [3]) was 4 (Herbicidal rate of 70% or more and less than 90%) and the “R: persian speedwell, herbicidal effect (criteria 0-5)” value (persian speedwell [4]) was 5 (Herbicidal rate of 90% or more (almost completely withered)). For the same molecule, the “F: southern crabgrass, herbicidal effect (criteria 0-5)” value (southern crabgrass [5]) was 3 (Herbicidal rate of 40% or more and less than 70%), the “herbicidal effect on G: green foxtail” value (green foxtail) was 0 (Herbicidal rate of 5% or less (almost no effect)) and the “herbicidal effect on J: blackgrass” value (blackgrass) was 2 (Herbicidal rate of 20% or more and less than 40%). The “K: Italian ryegrass, herbicidal effect (criteria 0-5)” value (Italian ryegrass [6]) was 5 (Herbicidal rate of 90% or more (almost completely withered)), the “O: lambsquarters, herbicidal effect (criteria 0-5)” value (lambsquarters) was 4 (Herbicidal rate of 70% or more and less than 90%) and the “N: redroot pigweed, herbicidal effect (criteria 0-5)” value (redroot pigweed [7]) was 5 (Herbicidal rate of 90% or more (almost completely withered)). The “herbicidal effect on N: redroot pigweed” value (redroot pigweed [8]) was 4 (Herbicidal rate of 70% or more and less than 90%).

For Cc1nn(C)c(=O)c(-c2c(-c3ccc([N+](=O)[O-])cc3)sc3ccc(F)cc23)c1O [2-341], the “H: barnyard grass, herbicidal effect (criteria 0-5)” value (barnyard grass) was 4 (Herbicidal rate of 70% or more and less than 90%), the “herbicidal effect on P: chickweed” value (chickweed) was 4 (Herbicidal rate of 70% or more and less than 90%) and the “herbicidal effect rating, C: oval-leafed pondweed” value (oval-leafed pondweed) was 3 (Herbicidal rate of 40% or more and less than 70%). For the same molecule, the “herbicidal effect on K: Italian ryegrass” value (Italian ryegrass [1]) was 5 (Herbicidal rate of 90% or more (almost completely withered)), the “Herbicidal effect on A: late watergrass (grade 0-5)” value (late watergrass) was 3 (Herbicidal rate of 40% or more and less than 70%) and the “herbicidal effect on F: southern crabgrass” value (southern crabgrass [2]) was 5 (Herbicidal rate of 90% or more (almost completely withered)). For the same molecule, the “herbicidal effect rating, B: Japanese bulrush” value (Japanese bulrush) was 3 (Herbicidal rate of 40% or more and less than 70%), the “herbicidal effect on R: persian speedwell” value (persian speedwell [3]) was 5 (Herbicidal rate of 90% or more (almost completely withered)) and the “R: persian speedwell, herbicidal effect (criteria 0-5)” value (persian speedwell [4]) was 5 (Herbicidal rate of 90% or more (almost completely withered)). The “F: southern crabgrass, herbicidal effect (criteria 0-5)” value (southern crabgrass [5]) was 5 (Herbicidal rate of 90% or more (almost completely withered)), the “herbicidal effect on G: green foxtail” value (green foxtail) was 4 (Herbicidal rate of 70% or more and less than 90%) and the “herbicidal effect on J: blackgrass” value (blackgrass) was 0 (Herbicidal rate of 5% or less (almost no effect)). For the same molecule, the “K: Italian ryegrass, herbicidal effect (criteria 0-5)” value (Italian ryegrass [6]) was 5 (Herbicidal rate of 90% or more (almost completely withered)), the “O: lambsquarters, herbicidal effect (criteria 0-5)” value (lambsquarters) was 5 (Herbicidal rate of 90% or more (almost completely withered)) and the “N: redroot pigweed, herbicidal effect (criteria 0-5)” value (redroot pigweed [7]) was 5 (Herbicidal rate of 90% or more (almost completely withered)). The “herbicidal effect on N: redroot pigweed” value (redroot pigweed [8]) was 5 (Herbicidal rate of 90% or more (almost completely withered)).
